System: 966289-007-R4-J1-PDC complex spheroid viability
Assay: Anticancer human tumor 966289-007-R4-J1-PDC patient-derived pancreatic adenocarcinoma cell line growth inhibition [RAS]
Settings: for IC50: curve of first compound; for viability, T/C: stronger effect = lower value
Summary of the method: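 Tumour cells grown as complex spheroids with HUVEC endothelial cells and mesenchymal stem cells, treated with RAS pathway inhibitor combinations. Each agent spans half-log steps from near clinical Cmax, or 10 microM where Cmax is unknown.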

[1] = second compound 0.000949 µM, first compound 0.00316 µM
[2] = second compound 0.000949 µM, first compound 0.01 µM
[3] = second compound 0.000949 µM, first compound 0.0316 µM
[4] = second compound 0.000949 µM, first compound 0.1 µM
[5] = second compound 0.000949 µM, first compound 0.316 µM
[6] = second compound 0.000949 µM, first compound 1 µM
[7] = second compound 0.003 µM, first compound 0.00316 µM
[8] = second compound 0.003 µM, first compound 0.01 µM
[9] = second compound 0.003 µM, first compound 0.0316 µM
[10] = second compound 0.003 µM, first compound 0.1 µM
[11] = second compound 0.003 µM, first compound 0.316 µM
[12] = second compound 0.003 µM, first compound 1 µM
[13] = second compound 0.00949 µM, first compound 0.00316 µM
[14] = second compound 0.00949 µM, first compound 0.01 µM
[15] = second compound 0.00949 µM, first compound 0.0316 µM
[16] = second compound 0.00949 µM, first compound 0.1 µM
[17] = second compound 0.00949 µM, first compound 0.316 µM
[18] = second compound 0.00949 µM, first compound 1 µM
[19] = second compound 0.03 µM, first compound 0.00316 µM
[20] = second compound 0.03 µM, first compound 0.01 µM
[21] = second compound 0.03 µM, first compound 0.0316 µM
[22] = second compound 0.03 µM, first compound 0.1 µM
[23] = second compound 0.03 µM, first compound 0.316 µM
[24] = second compound 0.03 µM, first compound 1 µM
[25] = second compound 0.0949 µM, first compound 0.00316 µM
[26] = second compound 0.0949 µM, first compound 0.01 µM
[27] = second compound 0.0949 µM, first compound 0.0316 µM
[28] = second compound 0.0949 µM, first compound 0.1 µM
[29] = second compound 0.0949 µM, first compound 0.316 µM
[30] = second compound 0.0949 µM, first compound 1 µM
[31] = second compound 0.3 µM, first compound 0.00316 µM
[32] = second compound 0.3 µM, first compound 0.01 µM
[33] = second compound 0.3 µM, first compound 0.0316 µM
[34] = second compound 0.3 µM, first compound 0.1 µM
[35] = second compound 0.3 µM, first compound 0.316 µM
[36] = second compound 0.3 µM, first compound 1 µM
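Also: spheroids exposed to agents for one week before readout.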
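For viability, T/C in this document: percent viability relative to DMSO vehicle control wells as 100%.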

SMILES: C=CC(=O)N1CCN(c2nc(OCC3CCCN3C)nc3c(F)c(-c4nc(N)cc(C)c4C(F)(F)F)c(Cl)cc23)C(C)C1 (stereo not drawn) + CCn1c(-c2cc(N3CCN(C)CC3)cnc2C(C)OC)c2c3cc(ccc31)-c1csc(n1)CC(NC(=O)C1CC1C)C(=O)N1CCCC(N1)C(=O)OCC(C)(C)C2
- IC50 (second compound 0.000949 µM): > 1000 nM
- IC50 (second compound 0.003 µM): > 1000 nM
- IC50 (second compound 0.00949 µM): > 1000 nM
- IC50 (second compound 0.03 µM): > 1000 nM
- IC50 (second compound 0.0949 µM): > 1000 nM
- IC50 (second compound 0.3 µM): > 1000 nM
- viability, T/C [1]: 131%
- viability, T/C [2]: 119%
- viability, T/C [3]: 138%
- viability, T/C [4]: 69.5%
- viability, T/C [5]: 77.9%
- viability, T/C [6]: 94.2%
- viability, T/C [7]: 115%
- viability, T/C [8]: 138%
- viability, T/C [9]: 83.6%
- viability, T/C [10]: 78.6%
- viability, T/C [11]: 85.3%
- viability, T/C [12]: 86.1%
- viability, T/C [13]: 101%
- viability, T/C [14]: 111%
- viability, T/C [15]: 105%
- viability, T/C [16]: 74.1%
- viability, T/C [17]: 90.3%
- viability, T/C [18]: 94.4%
- viability, T/C [19]: 80.2%
- viability, T/C [20]: 124%
- viability, T/C [21]: 108%
- viability, T/C [22]: 82%
- viability, T/C [23]: 110%
- viability, T/C [24]: 87.7%
- viability, T/C [25]: 102%
- viability, T/C [26]: 128%
- viability, T/C [27]: 98.3%
- viability, T/C [28]: 104%
- viability, T/C [29]: 125%
- viability, T/C [30]: 103%
- viability, T/C [31]: 79%
- viability, T/C [32]: 137%
- viability, T/C [33]: 128%
- viability, T/C [34]: 97.8%
- viability, T/C [35]: 135%
- viability, T/C [36]: 106%

SMILES: CC1(C)CCC(Nc2ncc(C(F)(F)F)c(-c3c[nH]c4c(P(C)(C)=O)c(C#N)ccc34)n2)CN1 (stereo not drawn) + CCn1c(-c2cc(N3CCN(C)CC3)cnc2C(C)OC)c2c3cc(ccc31)-c1csc(n1)CC(NC(=O)C1CC1C)C(=O)N1CCCC(N1)C(=O)OCC(C)(C)C2
- IC50 (second compound 0.000949 µM): 6.91 nM
- IC50 (second compound 0.003 µM): 6.78 nM
- IC50 (second compound 0.00949 µM): 6.97 nM
- IC50 (second compound 0.03 µM): 7.53 nM
- IC50 (second compound 0.0949 µM): 7.39 nM
- IC50 (second compound 0.3 µM): 6.14 nM
- viability, T/C (second compound 0.000949 µM, first compound 0.000949 µM): 124%
- viability, T/C (second compound 0.000949 µM, first compound 0.003 µM): 104%
- viability, T/C (second compound 0.000949 µM, first compound 0.00949 µM): 29%
- viability, T/C (second compound 0.000949 µM, first compound 0.03 µM): 14.5%
- viability, T/C (second compound 0.000949 µM, first compound 0.0949 µM): 8.71%
- viability, T/C (second compound 0.000949 µM, first compound 0.3 µM): 9.97%
- viability, T/C (second compound 0.003 µM, first compound 0.000949 µM): 134%
- viability, T/C (second compound 0.003 µM, first compound 0.003 µM): 99.9%
- viability, T/C (second compound 0.003 µM, first compound 0.00949 µM): 29.9%
- viability, T/C (second compound 0.003 µM, first compound 0.03 µM): 8.54%
- viability, T/C (second compound 0.003 µM, first compound 0.0949 µM): 10.7%
- viability, T/C (second compound 0.003 µM, first compound 0.3 µM): 9.36%
- viability, T/C (second compound 0.00949 µM, first compound 0.000949 µM): 130%
- viability, T/C (second compound 0.00949 µM, first compound 0.003 µM): 116%
- viability, T/C (second compound 0.00949 µM, first compound 0.00949 µM): 26%
- viability, T/C (second compound 0.00949 µM, first compound 0.03 µM): 14.3%
- viability, T/C (second compound 0.00949 µM, first compound 0.0949 µM): 12.3%
- viability, T/C (second compound 0.00949 µM, first compound 0.3 µM): 11.2%
- viability, T/C (second compound 0.03 µM, first compound 0.000949 µM): 113%
- viability, T/C (second compound 0.03 µM, first compound 0.003 µM): 115%
- viability, T/C (second compound 0.03 µM, first compound 0.00949 µM): 34%
- viability, T/C (second compound 0.03 µM, first compound 0.03 µM): 16.7%
- viability, T/C (second compound 0.03 µM, first compound 0.0949 µM): 12.3%
- viability, T/C (second compound 0.03 µM, first compound 0.3 µM): 10.1%
- viability, T/C (second compound 0.0949 µM, first compound 0.000949 µM): 122%
- viability, T/C (second compound 0.0949 µM, first compound 0.003 µM): 139%
- viability, T/C (second compound 0.0949 µM, first compound 0.00949 µM): 27.6%
- viability, T/C (second compound 0.0949 µM, first compound 0.03 µM): 12.7%
- viability, T/C (second compound 0.0949 µM, first compound 0.0949 µM): 13.7%
- viability, T/C (second compound 0.0949 µM, first compound 0.3 µM): 9.77%
- viability, T/C (second compound 0.3 µM, first compound 0.000949 µM): 128%
- viability, T/C (second compound 0.3 µM, first compound 0.003 µM): 86.9%
- viability, T/C (second compound 0.3 µM, first compound 0.00949 µM): 27.7%
- viability, T/C (second compound 0.3 µM, first compound 0.03 µM): 12.8%
- viability, T/C (second compound 0.3 µM, first compound 0.0949 µM): 12.7%
- viability, T/C (second compound 0.3 µM, first compound 0.3 µM): 11.7%

SMILES: C=CC(=O)Nc1cc(Nc2nccc(-c3cn(C)c4ccccc34)n2)c(OC)cc1N(C)CCN(C)C + CCn1c(-c2cccnc2C(C)OC)c2c3cc(ccc31)N1CCOC(CC(NC(=O)C(C(C)C)N(C)C(=O)C3(F)CCN(C(=O)C#CC(C)(C)N(C)C)CC3)C(=O)N3CCCC(N3)C(=O)OCC(C)(C)C2)C1
- IC50 (second compound 0.000949 µM): > 1000 nM
- IC50 (second compound 0.003 µM): > 1000 nM
- IC50 (second compound 0.00949 µM): > 1000 nM
- IC50 (second compound 0.03 µM): > 1000 nM
- IC50 (second compound 0.0949 µM): > 1000 nM
- IC50 (second compound 0.3 µM): > 1000 nM
- viability, T/C [1]: 101%
- viability, T/C [2]: 101%
- viability, T/C [3]: 99.9%
- viability, T/C [4]: 56.5%
- viability, T/C [5]: 77.5%
- viability, T/C [6]: 67.8%
- viability, T/C [7]: 106%
- viability, T/C [8]: 84.3%
- viability, T/C [9]: 82.1%
- viability, T/C [10]: 56.4%
- viability, T/C [11]: 55.1%
- viability, T/C [12]: 61.9%
- viability, T/C [13]: 87%
- viability, T/C [14]: 97%
- viability, T/C [15]: 90.8%
- viability, T/C [16]: 66.4%
- viability, T/C [17]: 78.5%
- viability, T/C [18]: 78.4%
- viability, T/C [19]: 65%
- viability, T/C [20]: 90%
- viability, T/C [21]: 99.3%
- viability, T/C [22]: 69.8%
- viability, T/C [23]: 92.7%
- viability, T/C [24]: 77.5%
- viability, T/C [25]: 76.9%
- viability, T/C [26]: 93.5%
- viability, T/C [27]: 117%
- viability, T/C [28]: 67.8%
- viability, T/C [29]: 113%
- viability, T/C [30]: 67.7%
- viability, T/C [31]: 81.5%
- viability, T/C [32]: 107%
- viability, T/C [33]: 111%
- viability, T/C [34]: 101%
- viability, T/C [35]: 108%
- viability, T/C [36]: 90.8%

SMILES: O=C(c1ccc(F)c(F)c1Nc1ccc(I)cc1F)N1CC(O)([C@@H]2CCCCN2)C1 + CCn1c(-c2cccnc2C(C)OC)c2c3cc(ccc31)N1CCOC(CC(NC(=O)C(C(C)C)N(C)C(=O)C3(F)CCN(C(=O)C#CC(C)(C)N(C)C)CC3)C(=O)N3CCCC(N3)C(=O)OCC(C)(C)C2)C1
- IC50 (second compound 0.000949 µM): > 1000 nM
- IC50 (second compound 0.003 µM): > 1000 nM
- IC50 (second compound 0.00949 µM): 940 nM
- IC50 (second compound 0.03 µM): 848 nM
- IC50 (second compound 0.0949 µM): > 1000 nM
- IC50 (second compound 0.3 µM): 661 nM
- viability, T/C [1]: 95.6%
- viability, T/C [2]: 94.9%
- viability, T/C [3]: 102%
- viability, T/C [4]: 84.4%
- viability, T/C [5]: 78.9%
- viability, T/C [6]: 60.3%
- viability, T/C [7]: 76.5%
- viability, T/C [8]: 82.9%
- viability, T/C [9]: 99.5%
- viability, T/C [10]: 79.5%
- viability, T/C [11]: 86.1%
- viability, T/C [12]: 59.4%
- viability, T/C [13]: 79.6%
- viability, T/C [14]: 84.6%
- viability, T/C [15]: 85.2%
- viability, T/C [16]: 89%
- viability, T/C [17]: 83.9%
- viability, T/C [18]: 48.1%
- viability, T/C [19]: 72.8%
- viability, T/C [20]: 86.5%
- viability, T/C [21]: 101%
- viability, T/C [22]: 74.1%
- viability, T/C [23]: 84.1%
- viability, T/C [24]: 44.3%
- viability, T/C [25]: 88%
- viability, T/C [26]: 83.3%
- viability, T/C [27]: 99.1%
- viability, T/C [28]: 82.5%
- viability, T/C [29]: 72.6%
- viability, T/C [30]: 56%
- viability, T/C [31]: 89.4%
- viability, T/C [32]: 78.5%
- viability, T/C [33]: 84.2%
- viability, T/C [34]: 82.9%
- viability, T/C [35]: 62.9%
- viability, T/C [36]: 42.8%
